The assay deals with Gli-responsive luciferase reporter cells, SUFU pathway antagonism. The experiment in a line: blockers of Gli reporter signaling – cell-based, luciferase luminescence, uHTS hits, dose response (AID 602464).

Each structure is given as a SMILES string. Calls of active or inactive are those of the source. Rule as the data show it: active = IC50 below about 20 µM; inactive = the rest.

Take `COc1ccc(CN(C)Cc2nc(Cc3cccc(F)c3)no2)c2cccnc12`: the half-maximal inhibitory concentration (IC50) was 5.96 µM.
Consider `CCc1nc(N)nc(N)c1-c1ccc(N(C)Cc2ccccc2)c([N+](=O)[O-])c1`, for which the IC50 was 1.57 µM.
For the compound `CC(=O)c1c(C)[nH]c(C(=O)OCC(=O)Nc2ccc(C)cc2[N+](=O)[O-])c1C`, the IC50 is 0.535 µM.
Consider `CC(C)(C)C1CCC(OC(=O)C[N+]2(C)CCCCC2)CC1` (centres undefined), for which the IC50 is > 20 µM (inactive).
With `Nc1nc2ccccc2n1/N=C/c1ccc([N+](=O)[O-])s1`, the IC50 is 6.42 µM.
To `c1ccc(Cn2c(-c3ccccc3)c[n+]3c2SCCC3)cc1` belongs 6.59 µM; to `Cc1sc2ncnc(N3CCN(S(=O)(=O)c4ccc(C(C)(C)C)cc4)CC3)c2c1C`, 5.43 µM.
To `Cc1ccc(NCC(=O)Nc2cccc(S(=O)(=O)N(C)C)c2)cc1S(=O)(=O)N1CCCCCC1` belongs 14.5 µM; to `COc1cc(C(=O)NC2CCN(C)CC2)ccc1Nc1ncc2c(n1)N(Cc1ccccc1)CCC(=O)N2C`, 1.28 µM; to `CCCc1nc(SCC(=O)Nc2nnc(CC)s2)c2c(=O)n(C)c(=O)n(C)c2n1`, 8.48 µM.
On to `Cc1sc2ncnc(NCC(O)c3ccc([N+](=O)[O-])cc3)c2c1C` (centres undefined), for which the concentration for half-maximal inhibition (IC50) is 4.75 µM.
To `Cc1ccc2c(c1)S/C(=C/c1ccc[n+](C)c1)N2CCO` belongs 15.2 µM; to `CC(=O)Nc1ccc(S(=O)(=O)N(Cc2ccccc2)C(C)C)cc1`, 8.29 µM; to `CC(C)C(=O)N1CCN(c2ccccc2NC(=O)COc2ccccc2)CC1`, > 20 µM (inactive).
Consider `Cc1ccc2c(c1)c(C)cc[n+]2Cc1ccccc1`, for which the IC50 is 8.76 µM.
To `CCN(CC)S(=O)(=O)c1ccc(S(=O)(=O)N2CCCC(C(=O)NC3CC3)C2)cc1` (centres undefined) belongs 7.52 µM; to `N=c1c2c(n(Cc3ccc(F)cc3)c3c1CCC3)CCCC2`, 3.82 µM; to `COc1ccc(CCNc2ncnc3c2oc2ccccc23)cc1OC`, 2.72 µM.
On to `O=c1c2ccccc2nc2n1C(CSCc1cccc(C(F)(F)F)c1)CS2` (centres undefined), for which the IC50 was 3.92 µM.
To `CCOc1ccc(-c2nc(CSCC(=O)NCC3CCCO3)c(C)o2)cc1` (centres undefined) belongs 1.47 µM; to `COCCOc1nc2c(c(=O)n(C)c(=O)n2C)n1Cc1cccc(OC)c1`, 9.46 µM.
Regarding `COc1ccc(CNCC(O)COc2cccc3c2OC(C)(C)C3)cc1` (centres undefined), the half-maximal inhibitory concentration (IC50) is 5.99 µM.
In the case of `Cc1sc2ncnc(NCC(C)(C)N3CCOCC3)c2c1C`, the concentration for half-maximal inhibition (IC50) was 3.85 µM.
To `CN1/C(=C\C(=O)COC(=O)CNC(=O)c2ccc3ccccc3c2)C(C)(C)c2ccccc21` belongs 9.73 µM; to `O=C(N[C@@H]1C/C=C\C[C@@H](CC(=O)N(CCO)Cc2ccccc2)C(=O)NC[C@H](c2ccccc2)OC1=O)OCC1c2ccccc2-c2ccccc21`, 8.39 µM.
Under `CCOC(=O)CSc1c(-c2cccs2)[nH]c2ccccc12` stands 3.69 µM.
Under `Cc1nn(C)c(C)c1/C=C/C(=O)c1ccc(Cl)cc1Cl` stands 7.53 µM; under `CC[C@@H](O)C[C@H]1CCC[C@@]2(C[C@@H]3OC(=O)/C=C/[C@@](C)(O)[C@@H](O)[C@H](C)[C@@H](O)[C@H](OC4CCC(N(C)C)C(C)O4)[C@@H](O)[C@](C)(O)CCCCC/C=C/[C@@H]4CC(C)(C)O[C@@]4(O)C[C@H](O2)[C@H]3C)O1` (some centres undefined), under 0.00977 µM.
As for `Cc1cc(C)c(C)c(S(=O)(=O)N2CCN(c3ncnc4ccccc34)CC2)c1C`, the IC50 was 4.6 µM.
Under `NC(=O)CC(NC(=O)c1ccccc1)c1ccc(N2CCCCCC2)c([N+](=O)[O-])c1` (centres undefined) stands > 20 µM (inactive); under `Cn1c(=O)c2c(nc(NCCOc3ccc(C(C)(C)C)cc3)n2C)n(C)c1=O`, > 20 µM (inactive); under `C(#Cc1ccccc1)C[N+]1(CC#Cc2cccc3ccccc23)CCCC1`, 3.6 µM.
Take `CC(C)(C)c1ccc(CN2C3=NCCCN3c3ccccc32)cc1`: the IC50 was 3.83 µM.
Under `COc1cc2c(c(OC)c1OC)-c1ccc(N(C)CC(OC)OC)c(=O)cc1[C@@H](NC(C)=O)CC2` stands 7.37 µM; under `CCn1c(=NC(=O)CS(=O)(=O)c2ccccc2)sc2cccc(OC)c21`, 3.95 µM.
To `O=C(Nc1cc(N2CCCCC2)ncn1)c1ccccc1` belongs 0.294 µM; to `Fc1ccc(-n2nnnc2-c2cnc(-c3cccs3)nc2C(F)(F)F)cc1`, 6.43 µM.
As to `COc1ccc(NS(=O)(=O)c2cccc(NC(=O)c3ccc(S(=O)(=O)N4CCCCCC4)cc3)c2)cc1`, the IC50 was 7.51 µM.
For the compound `CC(C)(C)[C@H]1COC(=O)[C@H](NC(=O)OCC2c3ccccc3-c3ccccc32)C/C=C\C[C@@H](CC(=O)N(CCO)Cc2ccccc2)C(=O)N1`, the IC50 was 11.8 µM.
For `Cc1cc(C)c[n+](C(C)C(=O)c2ccc(-c3ccccc3)cc2)c1` (centres undefined), the IC50 was 5.92 µM.
Under `O=C(Cn1cnc2ccccc21)Nc1cccc(S(=O)(=O)N2CCCC2)c1` stands 9.03 µM.
To `Cc1cc(Nc2ccc([N+](=O)[O-])cc2)c2ccccc2n1` belongs > 20 µM (inactive).
`CCc1ccccc1NC(=S)N=Nc1c(O)n(C)c2ccc(S(=O)(=O)N3CCOCC3)cc12`: the IC50 was 10.9 µM.
Under `Cc1nc2ccccc2n1CC(=O)NC(C)C1CC2CCC1C2` (centres undefined) stands 7.93 µM.
As to `CCCCOc1ccc(N2C(N)=NC(N)=NC23CCCCC3)cc1`, the IC50 was 17.1 µM.
Under `CCn1cc[n+](C)c1P(c1ccccc1)c1ccccc1` stands 8.57 µM; under `COc1cc(C(=O)NC2CCN(C)CC2)ccc1Nc1ncc2c(n1)N(CCc1ccccc1)CCC(=O)N2C`, 4.62 µM; under `Cc1nc2ncccn2c1-c1csc(Nc2ccc(O)cc2)n1`, 4.37 µM.
As for `Cc1nn(C)c(C(=O)NCc2ccc(Cl)cc2)c1Cl`, the IC50 was 8.1 µM.
To `COc1ccc(NS(=O)(=O)c2ccc(N3CCN(CCO)CC3)c([N+](=O)[O-])c2)cc1` belongs 8.77 µM; to `Cc1ccc(C2=C(CC(=O)O)C(=O)CC2)cc1`, > 20 µM (inactive); to `CCOC(=O)c1ccc(NC(=O)Cn2cnc3cc(C)c(C)cc32)cc1`, 2.75 µM.
Under `CN1/C(=C\C=Nc2ccccc2)C(C)(C)c2ccccc21` stands 6 µM; under `CCC(=O)c1ccc(OCC(O)Cn2c(C)nc3ccccc32)cc1` (centres undefined), 7.89 µM; under `COc1ccc(NS(=O)(=O)c2ccc(NC(C)=O)cc2)cc1OC`, 7.92 µM.
To `C=CCOc1nc2c(c(=O)n(C)c(=O)n2C)n1Cc1ccc(Cl)cc1Cl` belongs 10.3 µM; to `CCOP(=O)(CCP(=O)(OCC)OCC)OCC.C[CH2][Sn]([Cl])([Cl])[CH2]C`, 6.24 µM.
Regarding `O=C(C1CCCCC1)N1CCN(c2ccnc3cc(Cl)ccc23)CC1`, the half-maximal inhibitory concentration (IC50) is 4.29 µM.
For `CCC(C)NC(=O)CCC(=O)OC1O[C@H]2OC3(C)CC[C@H]4[C@H](C)CCC(C1C)C24OO3` (some centres undefined), the IC50 is 0.421 µM.
Under `Cn1c(=O)c2c(nc(NCc3ccco3)n2Cc2ccc(Cl)cc2Cl)n(C)c1=O` stands 0.647 µM.
To `CC(C)(C)OC(=O)N1CCC(c2cc(-c3cccs3)n[nH]2)CC1` belongs > 20 µM (inactive); to `CC(C)CC(NC(=O)CCCNC(=O)CCC(=O)OC1O[C@H]2OC3(C)CC[C@H]4[C@H](C)CCC(C1C)C24OO3)C(=O)O` (some centres undefined), 0.619 µM.
Regarding `COc1ccccc1CCNC(=O)C(=O)NCCC1CCCCN1S(=O)(=O)c1cccs1` (centres undefined), the IC50 is 8.81 µM.
Consider `O=C(NCCc1cccc(Cl)c1)c1ccc(OC2CCN(Cc3ccccn3)CC2)cc1`, for which the half-inhibitory concentration (IC50) is 7.72 µM.

One may read the IC50 as the concentration at which inhibition is half-maximal.
